{"source": "patent EP0430108A2", "about": "“Use of oxetanocin-G for the treatment of varicella-zoster virus infections” (priority 1989, dated 1991)", "key": {"[1]": {"test": "Single-dose intraperitoneal toxicity in the mouse", "assay_type": "in vivo", "conditions": "400 mg/kg intraperitoneally, once", "excerpt": "OXT-G and a pharmacologically acceptable salt thereof are each characterized by a low toxicity and a low cumulative toxicity upon repeated administration."}, "YS strain (TK^+ -VZV)": {"test_system": "YS strain (TK^+ -VZV)", "test": "Anti-VZV activity, plaque reduction in human fetal pulmonary cells, YS strain", "assay_type": "cell-based, varicella-zoster virus", "conditions": "nonresistant strain of VZV (YS, TK^+); human fetal pulmonary cell monolayer, approximately 20 PFU, 5 days at 37 °C, plaque count", "method": "(§1) Next, the anti-VZV effect of OXT-G will be described in detail by reference to the following Test Example. Anti-VZV activity: • (1) Determination method A monolayer of human fetal pulmonary cells, which had been grown in Eagle minimum essential medium containing 10 % of newborn calf serum, 60 µg/ml of kanamycin and 0.075 % of NaHCO₃, (used as a growth medium) in a 96-well microplate, was inoculated with approximately 20 PFU of various viruses and incubated at 37 °C for 2 hours. After 0.1 ml of 2 % newborn calf serum containing OXT-G was freshly supplied, the incubation was continued at 37 °C for 5 days. Plaques in each well were counted under a microscope and the ratio (%) thereof to the plaque count of a control (no addition) was calculated to prepare a graph. Based on the graph, the median effective dose (ED₅₀) was determined. The employed virus stains were as follows: YS strain: TK^+ strain (carrying thymidine kinase) isolated from a patient of varicella (TK^+ -VZV). […] Thus it is expected as an excellent anti-VZV agent."}, "YSR strain (TK^- -VZV)": {"test_system": "YSR strain (TK^- -VZV)", "test": "Anti-VZV activity, plaque reduction in human fetal pulmonary cells, YSR strain", "assay_type": "cell-based, varicella-zoster virus", "conditions": "resistant strain of VZV (YSR, TK^-, drug-resistant); human fetal pulmonary cell monolayer, approximately 20 PFU, 5 days at 37 °C, plaque count", "method": "as §1"}}, "data": [{"compound": "Nc1nc2c(ncn2C2OC(CO)C2CO)c(=O)[nH]1", "note": "(stereo not drawn) [OXT-G, oxetanocin-G]", "values": [{"measurement": "symptom of intoxication", "setting": "[1]", "value": "no symptom of intoxication could be observed"}, {"measurement": "antiviral effects", "setting": "YS strain (TK^+ -VZV)", "value": "excellent antiviral effects"}, {"measurement": "antiviral effects", "setting": "YSR strain (TK^- -VZV)", "value": "excellent antiviral effects"}]}]}
